Like-named read-outs stand apart in the source and are kept apart here.
Key:
S. epidermidis IAM1296 = test: Sensitivity test (agar dilution); type: cell-based, Staphylococcus epidermidis; settings: Staphylococcus epidermidis, S. epidermidis IAM1296
Experimental: (§1) The antibacterial activities were tested against various 18 bacteria (27 standard strains) which are representative bacteria caused clinically infectious disease (Staphylococcus aureus 3 strains, Staphylococcus epidermidis 1 strain, Micrococcus luteus 1 strain, Streptococcus pyogenes 1 strain, Enterococcus faecalis 1 strain, Enterococcus faecium 1 strain, Bacillus subtilis 1 strain, Escherichia coli 3 strains, Klebsiella pneumoniae 1 strain, Proteus mirabilis 1 strain, Proteus vulgaris 2 strains, Pseudomonas aeruginosa 3 strains, Serratia marcescens 2 strains, Enterobacter aerogenes 1 strain, Stenotrophomonas maltophilia 1 strain, Enterobacter cloacae 1 strain, Citrobacter freundii 1 strain, Moraxella catarrhalis 2 strains).
(§2) According to the standard method of Japan Chemotherapeutic Society (Chemotherapy, vol. […], p 76-79 (1981)) the test was carried out using the agar dilution method. After dissolving test samples in distilled water, agar medium containing the test samples was prepared in such a manner that the final concentration became twice serial dilution by pouring serially diluted combination drug solution or a single drug solution into agar medium. As agar medium was used Mueller Hinton Agar medium (MHA). Then, each strain was cultivated over night at 37° C. in an incubator and suspended in buffered saline solution with gelatin (BSG) in the concentration of about 10^6 CFU/ml. The suspension (about 5 μl) containing test strains was inoculated to the medium containing the test samples by Micro Planter.
(§3) When the sample is subjected to sensitivity test, this mixed solution was diluted by twice serial dilution method.
(§4) Furthermore, when the drug is solely used, each test sample was used as it is, and diluted by twice serial dilution method from the maximum concentration to the minimum concentration.
(§5) FIC index based on MIC value was calculated. […] Namely, when FIC index calculated by the following formula is equal or less than 1, the enhanced effect of the combination drug in said ratio is considered as positive. When FIC index is over 1, the enhanced effect of the combination drug in said ratio is considered as negative.
(§6) Formula of FIC index: FIC index=(MIC of Drug A in combination/MIC of Drug A alone)+(MIC of Drug B in combination/MIC of Drug B alone) N.C. in tables means being not calculated.

Str. pyogenes Cook = test: Sensitivity test (agar dilution); type: cell-based, Streptococcus pyogenes; settings: Streptococcus pyogenes, Str. pyogenes Cook
Experimental: as §1, §2, §3, §4, §5, §6

E. faecalis ATCC19433 = test: Sensitivity test (agar dilution); type: cell-based, Enterococcus faecalis; settings: Enterococcus faecalis, E. faecalis ATCC19433
Experimental: as §1, §2, §3, §4, §5, §6

E. faecium ATCC19434 = test: Sensitivity test (agar dilution); type: cell-based, Enterococcus faecium; settings: Enterococcus faecium, E. faecium ATCC19434
Experimental: as §1, §2, §3, §4, §5, §6

B. subtilis ATCC6633 = test: Sensitivity test (agar dilution); type: cell-based, Bacillus subtilis; settings: Bacillus subtilis, B. subtilis ATCC6633
Experimental: as §1, §2, §3, §4, §5, §6

E. coli ML1410 = test: Sensitivity test (agar dilution); type: cell-based, Escherichia coli; settings: Escherichia coli, E. coli ML1410
Experimental: as §1, §2, §3, §4, §5, §6

E. coli NIHJ JC-2 = test: Sensitivity test (agar dilution); type: cell-based, Escherichia coli; settings: Escherichia coli, E. coli NIHJ JC-2
Experimental: as §1, §2, §3, §4, §5, §6

E. coli ML1410 RP4 = test: microbe, parasite or virus in culture; type: cell-based, Escherichia coli; settings: Escherichia coli, E. coli ML1410 RP4
Experimental: as §1, §2, §3, §4, §5, §6

P. vulgaris GN7919 = test: Sensitivity test (agar dilution); type: cell-based, Proteus vulgaris; settings: Proteus vulgaris, P. vulgaris GN7919
Experimental: as §1, §2, §3, §4, §5, §6

P. vurgalis OX-19 = test: Sensitivity test (agar dilution); type: cell-based, Proteus vulgaris; settings: Proteus vulgaris, P. vurgalis OX-19
Experimental: as §1, §2, §3, §4, §5, §6

S. marcescens GN6473 = test: Sensitivity test (agar dilution); type: cell-based, Serratia marcescens; settings: Serratia marcescens, S. marcescens GN6473
Experimental: as §1, §2, §3, §4, §5, §6

S. marcescens X 100 = test: Sensitivity test (agar dilution); type: cell-based, Serratia marcescens; settings: Serratia marcescens, S. marcescens X 100
Experimental: as §1, §2, §3, §4, §5, §6

E. cloacae GN7471 = test: Sensitivity test (agar dilution); type: cell-based, Enterobacter cloacae; settings: Enterobacter cloacae, E. cloacae GN7471
Experimental: as §1, §2, §3, §4, §5, §6

C[C@H]1[C@H](NC(=O)/C(=N\OC(C)(C)C(=O)O)c2csc(N)n2)C(=O)N1S(=O)(=O)O [AZT, aztreonam]
MIC (S. epidermidis IAM1296; IAM1296, Concomitant (AZT:SM = 1:1), read-out: MIC concomitant): 0.031 µg/mL
MIC (S. epidermidis IAM1296; IAM1296, drug alone, read-out: MIC alone): > 32 µg/mL
MIC (Str. pyogenes Cook; Concomitant (AZT:SM = 1:1), read-out: MIC concomitant): 0.004 µg/mL
MIC (Str. pyogenes Cook; drug alone, read-out: MIC alone): 16 µg/mL
MIC (E. faecalis ATCC19433; ATCC19433, Concomitant (AZT:SM = 1:1), read-out: MIC concomitant): 1 µg/mL
MIC (E. faecalis ATCC19433; ATCC19433, drug alone, read-out: MIC alone): > 32 µg/mL
MIC (E. faecium ATCC19434; ATCC19434, Concomitant (AZT:SM = 1:1), read-out: MIC concomitant): 0.125 µg/mL
MIC (E. faecium ATCC19434; ATCC19434, drug alone, read-out: MIC alone): > 32 µg/mL
MIC (B. subtilis ATCC6633; ATCC6633, Concomitant (AZT:SM = 1:1), read-out: MIC concomitant): ≤ 0.002 µg/mL
MIC (B. subtilis ATCC6633; ATCC6633, drug alone, read-out: MIC alone): > 32 µg/mL
MIC (E. coli ML1410; ML1410, Concomitant (AZT:SM = 1:1), read-out: MIC concomitant): 0.063 µg/mL
MIC (E. coli ML1410; ML1410, drug alone, read-out: MIC alone): 0.125 µg/mL
MIC (E. coli NIHJ JC-2; NIHJJC2, Concomitant (AZT:SM = 1:1), read-out: MIC concomitant): 0.063 µg/mL
MIC (E. coli NIHJ JC-2; NIHJJC2, drug alone, read-out: MIC alone): 0.063 µg/mL
MIC (E. coli ML1410 RP4; ML1410RP4, read-out: MIC alone, drug alone): 0.125 µg/mL
MIC (E. coli ML1410 RP4; ML1410RP4, read-out: MIC concomitant, Concomitant (AZT:SM = 1:1)): 0.063 µg/mL
MIC (P. vulgaris GN7919; GN7919, Concomitant (AZT:SM = 1:1), read-out: MIC concomitant): 0.25 µg/mL
MIC (P. vulgaris GN7919; GN7919, drug alone, read-out: MIC alone): 0.125 µg/mL
MIC (P. vurgalis OX-19; OX19, Concomitant (AZT:SM = 1:1), read-out: MIC concomitant): 0.004 µg/mL
MIC (P. vurgalis OX-19; OX19, drug alone, read-out: MIC alone): 0.004 µg/mL
MIC (S. marcescens GN6473; GN6473, Concomitant (AZT:SM = 1:1), read-out: MIC concomitant): 0.25 µg/mL
MIC (S. marcescens GN6473; GN6473, drug alone, read-out: MIC alone): 0.125 µg/mL
MIC (S. marcescens X 100; X100, Concomitant (AZT:SM = 1:1), read-out: MIC concomitant): 0.031 µg/mL
MIC (S. marcescens X 100; X100, drug alone, read-out: MIC alone): 0.063 µg/mL
MIC (E. cloacae GN7471; GN7471, Concomitant (AZT:SM = 1:1), read-out: MIC concomitant): 4 µg/mL
MIC (E. cloacae GN7471; GN7471, drug alone, read-out: MIC alone): 16 µg/mL

Reference: US20090018111A1, “Novel Antimicrobial Medicament” (priority 2004, published 2009)
